{"source": "ChEMBL document CHEMBL3091415", "about": "“Aza-cycloisodityrosine analogue of RA-VII, an antitumor bicyclic hexapeptide” (Bioorg Med Chem Lett, 2013)", "key": {"HCT-116": {"system": "HCT-116", "experiment": "Cytotoxicity against human HCT116 cells after 48 hrs by MTT assay", "assay_type": "functional, cell-based", "conditions": "HCT-116, 48 h"}, "HL-60": {"system": "HL-60", "experiment": "Cytotoxicity against human HL60 cells after 48 hrs by MTT assay", "assay_type": "functional, cell-based", "conditions": "HL-60, 48 h"}}}
{"smiles": "COc1ccc(C[C@H]2C(=O)N[C@@H](C)C(=O)N(C)[C@H]3Cc4ccc(cc4)Oc4cc(ccc4OC)C[C@@H](C(=O)N[C@H](C)C(=O)N[C@@H](C)C(=O)N2C)N(C)C3=O)cc1", "values": [{"measurement": "IC50", "setting": "HCT-116", "value": 0.0033, "unit": "µg/mL"}, {"measurement": "IC50", "setting": "HL-60", "value": 0.0025, "unit": "µg/mL"}]}
{"smiles": "COc1ccc(C[C@H]2C(=O)N[C@@H](C)C(=O)N(C)[C@H]3Cc4ccc(cc4)Nc4cc(ccc4OC)C[C@@H](C(=O)N[C@H](C)C(=O)N[C@@H](C)C(=O)N2C)N(C)C3=O)cc1", "values": [{"measurement": "IC50", "setting": "HCT-116", "value": 0.017, "unit": "µg/mL"}, {"measurement": "IC50", "setting": "HL-60", "value": 0.018, "unit": "µg/mL"}]}
